Data: ChEMBL document CHEMBL1201862, “PubChem BioAssay data set” (2004)
Calls of active or inactive are those of the source.

What was measured:
[1] = fluconazole-exposed Candida albicans growth modulators – fluorescence, retest, confirmation (AID 2467); assay type: functional, cell-based
Exodeoxyribonuclease V = molecular target: T1, Exodeoxyribonuclease V (Escherichia coli (strain K12), UniProt P04993+P07648+P08394); test: RecBCD inhibition via phage-restricted bacterial growth – absorbance, V66 E. coli, mutant T4 phage, counter-screen for AddAB inhibitor project, dose response (AID 492957); assay type: functional, cell-based, Escherichia coli str. K-12 substr. MG1655
T1 sequence (P04993 whole entry): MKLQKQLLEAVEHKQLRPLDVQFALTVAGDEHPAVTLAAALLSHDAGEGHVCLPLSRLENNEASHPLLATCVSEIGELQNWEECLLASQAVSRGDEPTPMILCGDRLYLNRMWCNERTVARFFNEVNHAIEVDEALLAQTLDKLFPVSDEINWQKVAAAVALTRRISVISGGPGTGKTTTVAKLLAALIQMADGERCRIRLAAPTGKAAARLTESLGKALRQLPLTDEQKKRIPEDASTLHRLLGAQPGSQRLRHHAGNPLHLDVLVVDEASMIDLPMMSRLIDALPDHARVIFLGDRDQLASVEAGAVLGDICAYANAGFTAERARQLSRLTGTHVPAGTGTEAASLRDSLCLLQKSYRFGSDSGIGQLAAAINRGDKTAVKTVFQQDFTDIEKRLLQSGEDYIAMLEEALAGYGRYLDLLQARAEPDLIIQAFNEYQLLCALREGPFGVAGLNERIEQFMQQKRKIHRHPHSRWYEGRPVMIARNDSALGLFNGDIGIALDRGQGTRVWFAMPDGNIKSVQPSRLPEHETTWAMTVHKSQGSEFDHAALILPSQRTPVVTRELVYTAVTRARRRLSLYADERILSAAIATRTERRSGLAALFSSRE
T1 sequence (P07648 whole entry): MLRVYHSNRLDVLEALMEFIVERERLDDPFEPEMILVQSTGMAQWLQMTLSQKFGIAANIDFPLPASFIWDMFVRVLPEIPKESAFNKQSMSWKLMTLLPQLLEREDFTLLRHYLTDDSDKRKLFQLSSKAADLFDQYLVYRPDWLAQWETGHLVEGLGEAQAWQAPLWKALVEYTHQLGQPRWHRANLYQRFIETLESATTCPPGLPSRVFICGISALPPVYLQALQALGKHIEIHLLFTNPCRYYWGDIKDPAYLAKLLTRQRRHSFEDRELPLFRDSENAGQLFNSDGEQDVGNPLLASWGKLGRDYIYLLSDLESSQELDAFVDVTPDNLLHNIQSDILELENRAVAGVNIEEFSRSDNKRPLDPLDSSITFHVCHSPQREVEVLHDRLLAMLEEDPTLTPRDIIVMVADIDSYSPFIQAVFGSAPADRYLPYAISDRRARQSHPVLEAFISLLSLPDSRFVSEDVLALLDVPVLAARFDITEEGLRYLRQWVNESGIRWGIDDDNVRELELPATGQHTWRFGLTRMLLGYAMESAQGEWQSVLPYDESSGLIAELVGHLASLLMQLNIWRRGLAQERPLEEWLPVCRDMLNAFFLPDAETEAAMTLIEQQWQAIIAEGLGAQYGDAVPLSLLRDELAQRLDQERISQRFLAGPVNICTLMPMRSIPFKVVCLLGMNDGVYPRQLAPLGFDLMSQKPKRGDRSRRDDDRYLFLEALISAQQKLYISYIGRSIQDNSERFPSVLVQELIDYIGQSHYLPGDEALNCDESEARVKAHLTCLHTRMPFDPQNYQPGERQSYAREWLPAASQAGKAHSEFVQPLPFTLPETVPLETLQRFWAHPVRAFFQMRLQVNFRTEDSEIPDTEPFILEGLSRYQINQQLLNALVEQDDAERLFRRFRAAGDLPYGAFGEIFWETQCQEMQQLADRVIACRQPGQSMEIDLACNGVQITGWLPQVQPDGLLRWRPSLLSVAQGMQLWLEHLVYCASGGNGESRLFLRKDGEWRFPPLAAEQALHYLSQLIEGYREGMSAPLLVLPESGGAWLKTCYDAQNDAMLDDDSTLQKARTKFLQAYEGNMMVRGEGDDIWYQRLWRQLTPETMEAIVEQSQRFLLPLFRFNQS
T1 sequence (P08394 whole entry): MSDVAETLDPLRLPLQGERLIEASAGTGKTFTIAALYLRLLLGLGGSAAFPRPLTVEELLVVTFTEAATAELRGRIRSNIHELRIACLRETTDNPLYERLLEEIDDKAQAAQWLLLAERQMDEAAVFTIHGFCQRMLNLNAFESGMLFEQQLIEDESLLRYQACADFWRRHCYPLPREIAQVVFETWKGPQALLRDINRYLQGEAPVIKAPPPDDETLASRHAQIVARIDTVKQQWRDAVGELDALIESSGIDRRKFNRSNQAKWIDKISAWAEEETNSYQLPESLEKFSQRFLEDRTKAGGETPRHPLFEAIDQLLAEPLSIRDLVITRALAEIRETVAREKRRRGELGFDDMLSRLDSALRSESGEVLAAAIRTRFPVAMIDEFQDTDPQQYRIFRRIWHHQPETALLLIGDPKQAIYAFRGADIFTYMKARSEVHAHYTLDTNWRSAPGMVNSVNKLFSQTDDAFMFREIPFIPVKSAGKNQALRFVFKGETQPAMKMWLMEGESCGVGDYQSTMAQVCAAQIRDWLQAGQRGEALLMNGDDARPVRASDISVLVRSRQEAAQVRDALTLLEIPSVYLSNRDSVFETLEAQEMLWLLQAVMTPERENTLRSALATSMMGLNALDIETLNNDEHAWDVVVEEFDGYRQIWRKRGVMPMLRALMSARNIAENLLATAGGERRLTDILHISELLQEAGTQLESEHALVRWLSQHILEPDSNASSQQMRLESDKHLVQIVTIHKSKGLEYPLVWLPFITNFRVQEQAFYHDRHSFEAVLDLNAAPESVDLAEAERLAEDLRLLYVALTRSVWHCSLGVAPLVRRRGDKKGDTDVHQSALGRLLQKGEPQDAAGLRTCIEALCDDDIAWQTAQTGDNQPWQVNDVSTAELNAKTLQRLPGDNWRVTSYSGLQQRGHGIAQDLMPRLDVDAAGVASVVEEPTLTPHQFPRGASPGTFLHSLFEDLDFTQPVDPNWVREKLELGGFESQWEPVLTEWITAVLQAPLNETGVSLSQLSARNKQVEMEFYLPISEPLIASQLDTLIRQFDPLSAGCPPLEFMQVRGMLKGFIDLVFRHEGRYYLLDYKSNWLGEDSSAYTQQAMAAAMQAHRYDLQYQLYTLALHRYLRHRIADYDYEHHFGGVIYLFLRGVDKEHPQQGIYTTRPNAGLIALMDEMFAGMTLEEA

[2] = molecular target: Polyadenylate-binding protein 1 (Homo sapiens, UniProt P11940); test: MLLE domain peptide-binding blockers, IC50 – biochemical, fluorescence polarization, FITC-PAM2 peptide, dose response (AID 602259); assay type: functional; settings: read-out: IC50_Mean
Polyadenylate-binding protein 1, sequence (P11940 whole entry, the tested form may be a part): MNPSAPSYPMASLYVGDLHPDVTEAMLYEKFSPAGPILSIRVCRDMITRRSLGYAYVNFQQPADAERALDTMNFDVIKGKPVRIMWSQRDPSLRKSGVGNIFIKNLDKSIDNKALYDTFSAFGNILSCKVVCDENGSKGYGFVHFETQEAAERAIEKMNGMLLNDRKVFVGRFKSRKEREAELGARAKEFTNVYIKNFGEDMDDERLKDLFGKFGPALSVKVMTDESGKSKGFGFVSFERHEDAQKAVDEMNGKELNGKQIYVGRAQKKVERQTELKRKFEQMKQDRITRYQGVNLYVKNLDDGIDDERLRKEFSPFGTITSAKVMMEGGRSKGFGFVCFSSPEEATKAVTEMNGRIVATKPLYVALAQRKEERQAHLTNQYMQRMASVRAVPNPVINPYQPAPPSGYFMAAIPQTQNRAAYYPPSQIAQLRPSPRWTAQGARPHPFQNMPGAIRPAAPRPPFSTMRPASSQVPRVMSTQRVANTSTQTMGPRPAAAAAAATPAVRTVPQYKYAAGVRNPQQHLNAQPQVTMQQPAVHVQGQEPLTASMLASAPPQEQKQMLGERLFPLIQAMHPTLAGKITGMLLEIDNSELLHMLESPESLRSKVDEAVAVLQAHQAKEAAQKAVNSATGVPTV

CN1CCc2cc3c(c4c2[C@H]1[C@H](O)c1ccccc1-4)OCO3
EC50 [1]: 2.74 µM (active) | IC50 (Exodeoxyribonuclease V): > 119 µM (inactive) | IC50 [2]: 25.8 µM (inactive)
